Measurements taken from ChEMBL document CHEMBL1759949, “In vitro cytotoxicity of melleolide antibiotics: structural and mechanistic aspects” (Bioorg Med Chem Lett, 2011).
Calls of active or inactive are those of the source. The rule behind the calls is not given here. Starred links: 1 amine or outer side, 2 acyl side, 3 side chain; linkers in the order of their positions; H or OH if unused. Positions of bridges follow the written chain, without caps; N, C: chain ends. Non-standard residues stand in square brackets, D forms with d. Residues, ends and D or L forms follow the SMILES beside them. Chains are numbered I, II in the order given. Actinocin(1to9) = Cc1c2oc3c(C)ccc(C(=O)[*:2])c3nc-2c(C(=O)[*:1])c(N)c1=O; NMeV = CN[C@H](C(=O)O)C(C)C; Sar = CNCC(=O)O

What was measured:
[1] = test system: MCF7; assay: Cytotoxicity against human MCF7 cells; type: functional, cell-based
[2] = test system: Jurkat; assay: Cytotoxicity against human Jurkat cells; type: functional, cell-based
[3] = test system: HeLa; assay: Cytotoxicity against human HeLa cells; type: functional, cell-based
[4] = test system: K562; assay: Cytotoxicity against human K562 cells; type: functional, cell-based
[5] = test system: K562; assay: Inhibition of cellular respiration in human K562 cells at 1.25 to 5 uM; type: functional, cell-based
[6] = test system: K562; assay: Inhibition of RNA synthesis in human K562 cells assessed as inhibition of [14C]uridine incorporation upto 5 uM after 120 mins; type: functional, cell-based
[7] = test system: K562; assay: Inhibition of DNA synthesis in human K562 cells assessed as [14C]thymidine incorporation at 1.25 uM after 60 mins; type: functional; parameters: scale not given: the % may be the effect or the level left
[8] = test system: K562; assay: Inhibition of DNA synthesis in human K562 cells assessed as [14C]thymidine incorporation at 1.25 uM after 120 mins; type: functional; parameters: scale not given: the % may be the effect or the level left
[9] = test system: K562; assay: Inhibition of protein synthesis in human K562 cells assessed as inhibition of [14C]L-leucine incorporation at 1.25 uM after 60 mins; type: functional, cell-based
[10] = test system: K562; assay: Inhibition of protein synthesis in human K562 cells assessed as [14C]L-leucine incorporation at 1.25 uM after 120 mins; type: functional; parameters: scale not given: the % may be the effect or the level left
[11] = test system: K562; assay: Inhibition of protein synthesis in human K562 cells assessed as [14C]L-leucine incorporation at 5 uM after 60 mins; type: functional; parameters: scale not given: the % may be the effect or the level left
[12] = test system: K562; assay: Inhibition of protein synthesis in human K562 cells assessed as [14C]L-leucine incorporation at 5 uM after 120 mins; type: functional; parameters: scale not given: the % may be the effect or the level left
[13] = test system: K562; assay: Inhibition of DNA synthesis in human K562 cells assessed as [14C]thymidine incorporation at 5 uM after 60 mins; type: functional; parameters: scale not given: the % may be the effect or the level left
[14] = test system: K562; assay: Inhibition of DNA synthesis in human K562 cells assessed as [14C]thymidine incorporation at 5 uM after 120 mins; type: functional; parameters: scale not given: the % may be the effect or the level left
[15] = test system: MCF7; assay: Cytotoxicity against human MCF7 cells at <=100 uM; type: functional, cell-based
[16] = test system: Jurkat; assay: Cytotoxicity against human Jurkat cells at <=100 uM; type: functional, cell-based
[17] = test system: HeLa; assay: Cytotoxicity against human HeLa cells at <=100 uM; type: functional, cell-based
[18] = test system: K562; assay: Cytotoxicity against human K562 cells at <=100 uM; type: functional, cell-based
[19] = test system: K562; assay: Inhibition of protein synthesis in human K562 cells assessed as [14C]L-leucine incorporation at 3.5 uM after 120 mins; type: functional; parameters: scale not given: the % may be the effect or the level left
[20] = test system: K562; assay: Inhibition of transcription in human K562 cells at 3.5 uM after 120 mins; type: functional; parameters: scale not given: the % may be the effect or the level left
[21] = test system: K562; assay: Inhibition of transcription in human K562 cells at 4 uM after 120 mins; type: functional; parameters: scale not given: the % may be the effect or the level left
[22] = test system: K562; assay: Inhibition of DNA synthesis in human K562 cells assessed as [14C]thymidine incorporation at 4 uM after 120 mins; type: functional; parameters: scale not given: the % may be the effect or the level left
[23] = test system: K562; assay: Inhibition of DNA synthesis in human K562 cells assessed as [14C]thymidine incorporation at 0.47 uM after 120 mins; type: functional; parameters: scale not given: the % may be the effect or the level left
[24] = test system: K562; assay: Inhibition of protein synthesis in human K562 cells assessed as [14C]L-leucine incorporation at 0.47 uM after 120 mins; type: functional; parameters: scale not given: the % may be the effect or the level left
[25] = test system: K562; assay: Inhibition of transcription in human K562 cells at 0.47 uM after 120 mins; type: functional; parameters: scale not given: the % may be the effect or the level left

Cc1cc(O)cc(O)c1C(=O)O[C@@H]1C[C@@]2(C)C1=C(C=O)[C@@H](O)[C@@H]1CC(C)(C)C[C@@H]12 [DEHYDROARMILLYLORSELLINATE]
IC50 [1]: 8 µM | IC50 [2]: 16.9 µM | IC50 [3]: 15.2 µM | IC50 [4]: 5 µM | inhibition [5]: inactive | inhibition [6]: inactive | Activity [7]: 90% | Activity [8]: 71% | inhibition [9]: inactive | Activity [10]: 96% | Activity [11]: 76% | Activity [12]: 35% | Activity [13]: 70% | Activity [14]: 35%

COc1cc(O)c(C(=O)O[C@@H]2C[C@]3(C)[C@H]4[C@@H](O)C(C)(C)C[C@@]4(O)C=C(CO)[C@]23O)c(C)c1Cl
Activity [15]: Not toxic | Activity [16]: Not toxic | Activity [17]: Not toxic | Activity [18]: Not toxic

C[C@@H]1C[C@@H]([C@H](O)CC2CC(=O)NC(=O)C2)C(=O)[C@@H](C)C1 [CYCLOHEXIMIDE]
Activity [19]: 26% | Activity [20]: 99%

Cc1c2oc3c(C)ccc(C(=O)N[C@@H]4C(=O)N[C@H](C(C)C)C(=O)N5CCC[C@H]5C(=O)N(C)CC(=O)N(C)[C@@H](C(C)C)C(=O)O[C@@H]4C)c3nc-2c(C(=O)N[C@@H]2C(=O)N[C@H](C(C)C)C(=O)N3CCC[C@H]3C(=O)N(C)CC(=O)N(C)[C@@H](C(C)C)C(=O)O[C@@H]2C)c(N)c1=O [DACTINOMYCIN] (I: T[dV]P[Sar][NMeV] / II: T[dV]P[Sar][NMeV]; ester I:1-I:C, II:1-II:C; linker I:N-II:N via Actinocin(1to9))
Activity [21]: 2% | Activity [22]: 58%

COc1cc(C)c(C(=O)O[C@@H]2C[C@]3(C)[C@H]4CC(C)(C)C[C@H]4C=C(C=O)[C@]23O)c(O)c1 [ARMILLARIN]
IC50 [1]: 11.6 µM | IC50 [3]: 16.7 µM | IC50 [4]: 9.9 µM

COc1cc(O)c(C(=O)O[C@@H]2C[C@]3(C)[C@H]4CC(C)(C)C[C@H]4[C@H](O)[C@@H](CO)[C@]23O)c(C)c1Cl
IC50 [1]: 26.5 µM | IC50 [2]: 13.3 µM | IC50 [3]: 35.8 µM | IC50 [4]: 25 µM

COc1cc(O)c(C(=O)O[C@@H]2C[C@]3(C)[C@H]4CC(C)(CO)C[C@@]4(O)C=C(CO)[C@]23O)c(C)c1Cl (stereo not given in full)
Activity [15]: Not toxic | Activity [16]: Not toxic | Activity [17]: Not toxic | Activity [18]: Not toxic

COc1cc(O)c(C(=O)O[C@@H]2C[C@]3(C)[C@H]4CC(C)(C)C[C@H]4C=C(C=O)[C@]23O)c(C)c1Cl [ARMILLARIDIN]
IC50 [1]: 7.8 µM | IC50 [2]: 3 µM | IC50 [3]: 9.2 µM | IC50 [4]: 8.9 µM

COc1cccc2c1C(=O)c1c(O)c3c(c(O)c1C2=O)C[C@@](O)(C(=O)CO)C[C@@H]3O[C@H]1C[C@H](N)[C@H](O)[C@H](C)O1 [DOXORUBICIN]
Activity [23]: 46% | Activity [24]: 89% | Activity [25]: 79%

COc1cc(O)c(C(=O)O[C@@H]2C[C@]3(C)[C@H]4CC(C)(C)C[C@H]4C=C(CO)[C@]23O)c(C)c1Cl
IC50 [1]: 21.3 µM | IC50 [2]: 10.4 µM | IC50 [3]: 40 µM | IC50 [4]: 38.9 µM

COc1cc(O)c(C(=O)O[C@@H]2C[C@]3(C)[C@H]4CC(C)(C)C[C@H]4C=C(C=O)[C@]23OC)c(C)c1Cl
IC50 [1]: 6.7 µM | IC50 [2]: 4.1 µM | IC50 [3]: 18.8 µM | IC50 [4]: 20.6 µM

Cc1c(Cl)c(O)cc(O)c1C(=O)O[C@@H]1C[C@]2(C)[C@H]3CC(C)(C)C[C@@]3(O)C=C(CO)[C@]12O
IC50 [1]: > 100 µM | IC50 [2]: 46.6 µM | IC50 [3]: > 100 µM | IC50 [4]: > 100 µM

COc1cc(O)c(C(=O)OCC2=C[C@]3(O)CC(C)(C)[C@H](O)[C@@H]3[C@@]3(C)C[C@@H](O)[C@@]23O)c(C)c1Cl
Activity [15]: Not toxic | Activity [16]: Not toxic | Activity [17]: Not toxic | Activity [18]: Not toxic

Cc1cc(O)cc(O)c1C(=O)O[C@@H]1C[C@]2(C)[C@H]3CC(C)(C)C[C@@]3(O)C=C(CO)[C@]12O
Activity [15]: Not toxic | Activity [16]: Not toxic | Activity [17]: Not toxic | Activity [18]: Not toxic
